Consider 20 compounds from PubChem BioAssay (NCI).

Experiment in all cases: NCI-60 cell line screen, 48 h
The subject of assay [1] is M14 melanoma.
Assay [2] relates to HOP-92 NSCLC.
The test system of assay [3] is SN12C renal.
In assay [4] the test system is IGROV1 ovarian.
Assay [5] relates to RPMI-8226 leukemia.
In assay [6] the test system is OVCAR-8 ovarian.
Assay [7] has as its system SK-OV-3 ovarian.
Assay [8] relates to EKVX NSCLC.
Assay [9] has as its system K-562 leukemia.
The test system of assay [10] is HOP-62 NSCLC.

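Growth conditions: 96-well plates. Treatment: test compound, 48 hours, 5 concentrations. Analysis: linear interpolation between bracketing concentrations; unreached endpoints set to highest concentration. GI50: concentration for 50% inhibition of growth. TGI: concentration producing complete growth inhibition.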 A value given as a limit tells only on which side of the number the result lay.

For the compound `Cc1ccc(-c2cc(-c3ccco3)c(C#N)c(=O)n2C2OC(OC(=O)c3ccccc3)C(OC(=O)c3ccccc3)C2OC(=O)c2ccccc2)cc1` (configuration not stated), the TGI in assay [1] was greater than 100 µM; in assay [2] it was 59.4 µM; in assay [3], greater than 100 µM; in [4], greater than 100 µM; in assay [5], greater than 100 µM; in assay [6], greater than 100 µM. In addition, the TGI in [7], in [8], in [9] and in assay [10] was greater than 100 µM each time.

With `O=c1cccc(C2CC(CO)C3CCCCN3C2)[nH]1` (configuration not stated), the TGI in assay [1], in assay [2], in [3], in assay [4], in assay [5] and in assay [6] was greater than 100 µM throughout. The TGI in [7], in [8] and in [9] was greater than 100 µM throughout.

Regarding `Fc1cc2[nH]ncc2c2c3c(c(-c4cn[nH]c4C(F)(F)F)nc12)C1CCC3C1` (configuration not stated), the GI50 in assay [1] was 0.791 µM; in assay [2], 0.885 µM; in assay [3], 0.96 µM; in assay [4] it was 0.994 µM; in assay [5], 0.804 µM; in [6], 1.21 µM. Moreover, the GI50 in assay [7] is 0.729 µM; in [8], 1.39 µM; in assay [9], 1.61 µM; in [10], 0.97 µM. Also, the TGI came to 3.53 µM in assay [1]; 3.04 µM in assay [2]; 5.18 µM in [3]; 3.77 µM in [4]; 3.54 µM in assay [5]; 6.74 µM in assay [6]. For the same compound, the TGI in assay [7] is 2.26 µM; in assay [8], 5.91 µM; in [9], greater than 50 µM; in assay [10], 3.75 µM.

With `Cc1ccc(-c2csc(NC(=O)CN3CCN(c4cc5c(cc4F)c(=O)c(C(=O)O)cn5C4CC4)CC3)n2)cc1`, the GI50 in [1] was 1.63 µM; in [2], 1.13 µM; in assay [3], 0.413 µM; in assay [4] it was 0.739 µM; in assay [5], 0.331 µM; in assay [6], 0.388 µM. In addition, the GI50 was 1.3 µM in assay [7], 1.53 µM in [8], 0.771 µM in assay [9] and 0.393 µM in assay [10]. Moreover, the TGI turned out to be 32.9 µM in assay [1]; 5.13 µM in assay [2]; 15.4 µM in assay [3]; 17 µM in assay [4]; 1.47 µM in [5]; 11.7 µM in [6]. Besides, the TGI was 5.52 µM in [7], 23.9 µM in assay [8], greater than 100 µM in assay [9] and 14.6 µM in assay [10].

`O=C(c1ccncc1)n1nc(-c2ccccc2)c(N=Nc2ccccc2[N+](=O)[O-])c1-c1ccccc1`: the TGI in assay [1], in assay [2], in assay [3], in assay [4], in [5] and in assay [6] was greater than 100 µM each time. In addition, the TGI in [7], in assay [8], in [9] and in assay [10] was greater than 100 µM throughout.

On to `Cc1cccc(-n2c(=S)[nH]c3c(sc(=O)n3-c3ccccc3C)c2=O)c1`, for which the TGI in assay [1], in [2], in [3], in assay [4], in assay [5] and in assay [6] was greater than 100 µM each time. For the same compound, the TGI in [7], in assay [8], in [9] and in assay [10] was greater than 100 µM throughout.

Take `COc1ccc(/C=C\c2cc(OC)c(O[Si](C)(C)C(C)(C)C)c(OC)c2)cc1`: the TGI in [1] was greater than 100 µM; in assay [2] it was greater than 100 µM; in [3] it was greater than 100 µM; in assay [4], greater than 100 µM; in [5] it was 83.3 µM; in assay [6] it was greater than 100 µM. Further, the TGI in assay [7], in assay [8], in [9] and in assay [10] was greater than 100 µM each time.

Take `Cc1cccc(C)c1NC(=O)C1C(=O)N(c2c(C)cccc2C)C(=O)/C1=N\NC(N)=S` (configuration not stated): the TGI in [1], in assay [2], in assay [3], in assay [4], in assay [5] and in assay [6] was greater than 100 µM each time. The TGI in assay [8], in assay [9] and in assay [10] was greater than 100 µM in each case.

As for `Cc1cc2c(cc1Cl)SC1=NN(C)C(N(C)C)N1S2(=O)=O` (configuration not stated), the GI50 was greater than 100 µM in [1]; 55 µM in assay [2]; greater than 100 µM in [3]; greater than 100 µM in [4]; greater than 100 µM in assay [5]; greater than 100 µM in assay [6]. Besides, the GI50 in assay [7], in assay [8], in assay [9] and in assay [10] was greater than 100 µM throughout. The TGI in assay [1], in assay [2], in [3], in [4], in assay [5] and in assay [6] was greater than 100 µM each time. In addition, the TGI in assay [7], in [8], in assay [9] and in [10] was greater than 100 µM in each case.

Take `CCOc1cc(/C=N\Nc2nnc(C)n2N)c(C)cc1N(CCCl)CCCl`: the GI50 in [1] is 0.776 µM; in assay [2] it was 0.163 µM; in [3], 1.07 µM; in [4] it was 1.96 µM; in assay [5], 0.0978 µM; in assay [6] it was 1.34 µM. Further, the GI50 in assay [7] is 2.28 µM; in assay [9], 0.646 µM; in assay [10], 0.631 µM. For the same compound, the TGI in [1] is greater than 49.8 µM; in assay [2], 1.12 µM; in assay [3] it was 27.3 µM; in assay [4], greater than 100 µM; in assay [5] it was 3.01 µM; in [6] it was greater than 36 µM. Also, the TGI in assay [7] is 8.24 µM; in assay [9], greater than 100 µM; in assay [10], 22.5 µM.

Take `COc1cc(C(=O)Nc2cc3c(cc2Oc2cc(C)cc(C)c2)C(=O)N(C)[C@@H](CC(=O)N(C)O)C(=O)N3)c(Br)c(OC)c1OC`: the GI50 in assay [1], in assay [2], in [3], in [4], in assay [5] and in assay [6] was less than 0.00333 µM each time. Besides, the GI50 in [7], in assay [8], in [9] and in assay [10] was less than 0.00333 µM each time. The TGI in [1] was 0.0101 µM; in assay [2], less than 0.00333 µM; in [3] it was less than 0.00333 µM; in assay [4] it was 0.0104 µM; in assay [5], less than 0.00333 µM; in [6] it was 0.0181 µM. The TGI in [7] came to 0.00955 µM; in assay [8], 0.0201 µM; in [9], 0.00872 µM; in assay [10] it was 0.00372 µM.

On to `Cn1c2c(c3ccc(Cl)c(Cl)c31)C(C#N)C1(CCNCC1)NC2=O` (configuration not stated), for which the GI50 in assay [1] is 1.54 µM; in assay [2], 0.484 µM; in assay [3], 2.51 µM; in [4], 1.66 µM; in assay [5], 1.7 µM; in [6] it was 2.83 µM. The GI50 in assay [7] was 2.73 µM; in [8] it was 2.47 µM; in [9] it was 1.47 µM; in [10], 1.47 µM. In addition, the TGI was 3.3 µM in assay [1]; 2.37 µM in assay [2]; 12.6 µM in assay [3]; 3.83 µM in assay [4]; 3.87 µM in assay [5]; 8.85 µM in [6]. The TGI in assay [7] worked out at 8.97 µM; in assay [8] it was 9.84 µM; in assay [9], 2.89 µM; in assay [10], 3.93 µM.

For the compound `COC(=O)C(CC(=O)Nc1ccc(C)cc1)C(=O)C(=O)Nc1ccccc1C(C)C` (configuration not stated), the TGI in assay [1], in [2], in assay [3], in assay [4], in assay [5] and in assay [6] was greater than 100 µM each time. The TGI in assay [7], in assay [8], in [9] and in [10] was greater than 100 µM throughout.

For the compound `CC1C(=O)OCC2=CCN3CCC(OC(=O)C(C)C1(C)O)C23` (configuration not stated), the TGI in assay [1], in assay [2], in assay [3], in assay [4], in [5] and in assay [6] was greater than 100 µM throughout. Besides, the TGI in [7], in assay [8] and in [9] was greater than 100 µM each time.

For `CCn1c2ccc(O)cc2c2c(C)c3c[n+](C)ccc3c(C)c21`, the GI50 is 4.4 µM in [1]; 2.07 µM in [2]; 0.152 µM in [3]; 7.43 µM in [5]; 1.47 µM in assay [6]; 7.41 µM in assay [7]. The results for the GI50 in assay [8], in assay [9] and in assay [10] were 10.9 µM, 6.03 µM and 1.18 µM, respectively. Moreover, the TGI in assay [1] turned out to be 29.2 µM; in assay [2], 30.3 µM; in [3], 3.03 µM; in assay [5] it was 68 µM; in assay [6], 41.4 µM; in assay [7], 83.8 µM. For the same compound, the figures for the TGI in assay [8], in [9] and in assay [10] were greater than 100 µM, greater than 100 µM and 21 µM, respectively.

As for `NC(=S)NNc1c([N+](=O)[O-])cnn(-c2ccccc2)c1=O`, the TGI in assay [1] is 28.4 µM; in assay [2] it was 34.8 µM; in assay [3] it was 31.4 µM; in [4] it was 35 µM; in assay [5], greater than 100 µM; in assay [6] it was 31.8 µM. Further, the TGI in [7] was 36 µM; in assay [9] it was 15.9 µM; in assay [10], 34.4 µM.

With `CCOC(=O)c1cc(/C=C/C(C)=C/C(=O)OC)oc1C`, the TGI in [1], in [2], in assay [4], in [5], in [6] and in assay [7] was greater than 100 µM in each case. For the same compound, the TGI in assay [8], in assay [9] and in assay [10] was greater than 100 µM throughout.

Regarding `CN(C)CC1CCC/C1=N\O` (configuration not stated), the TGI in assay [1], in [2], in assay [3], in [4], in assay [5] and in assay [6] was greater than 100 µM each time. Besides, the TGI in [7], in [9] and in assay [10] was greater than 100 µM each time.

Turning to `OCCNc1ncnc2c1ncn2Cc1cccc(COc2cccc(OCc3cccc(Cn4cnc5c(NCCO)ncnc54)c3)c2)c1`, the GI50 in assay [1] was 17.2 µM; in assay [2] it was 7.61 µM; in [3], 17 µM; in [4], 12.9 µM; in assay [5] it was 6.47 µM; in assay [6], 18.5 µM. For the same compound, the GI50 in assay [7] was greater than 100 µM; in assay [8] it was 14.3 µM; in assay [9], 8.01 µM. The TGI was 33.3 µM in assay [1]; 23.6 µM in assay [2]; 34.5 µM in [3]; 37.4 µM in [4]; 27.8 µM in [5]; 38.1 µM in [6]. The TGI in assay [7] was greater than 100 µM; in assay [8], 29 µM; in [9], 35.8 µM.

Turning to `C[C@]12CCCC(=O)C1(O)C[C@H](C(=O)O)CC2` (some centres not stated), the TGI in assay [1], in assay [2], in [3], in assay [4], in [5] and in assay [6] was greater than 100 µM throughout. The TGI in [7], in [9] and in assay [10] was greater than 100 µM in each case.
